Data set [1] can be described thus: Solubility (Test F), McIlvaine buffer pH 6.5. The following applies: McIlvaine buffer pH 6.5, 25° C., 24 to 72 h, theoretical maximum 200 μM; for solubility: disodium hydrogenphosphate-citric acid (McIlvaine) buffer, 25 °C, pH 6.5, aqueous buffer, thermodynamic from solid. It is filed as physicochemical.
Data set [2] concerns the target T1, Human NLRP3 (Homo sapiens (Human), UniProt Q96P20).
Data set [3] has as its target T1, Human NLRP3. Description: Human NLRP3 speck formation assay (Test A), nigericin triggered ASC-speck formation in ASC-GFP reporter monocytes.
Data set [4] in a line: Solubility (Test E). It is filed as physicochemical.
The mark [5] stands for this setting: Test C IC50, IL-1β release, THP-1 cells, LPS 2 μg/mL 24 h, BzATP 1 mM.

Each structure is given as a SMILES string. ≈ marks a conversion by molar mass, not a printed value. Read-outs that look alike come from different tables or passages of the source.

T1 sequence (Q96P20 whole entry): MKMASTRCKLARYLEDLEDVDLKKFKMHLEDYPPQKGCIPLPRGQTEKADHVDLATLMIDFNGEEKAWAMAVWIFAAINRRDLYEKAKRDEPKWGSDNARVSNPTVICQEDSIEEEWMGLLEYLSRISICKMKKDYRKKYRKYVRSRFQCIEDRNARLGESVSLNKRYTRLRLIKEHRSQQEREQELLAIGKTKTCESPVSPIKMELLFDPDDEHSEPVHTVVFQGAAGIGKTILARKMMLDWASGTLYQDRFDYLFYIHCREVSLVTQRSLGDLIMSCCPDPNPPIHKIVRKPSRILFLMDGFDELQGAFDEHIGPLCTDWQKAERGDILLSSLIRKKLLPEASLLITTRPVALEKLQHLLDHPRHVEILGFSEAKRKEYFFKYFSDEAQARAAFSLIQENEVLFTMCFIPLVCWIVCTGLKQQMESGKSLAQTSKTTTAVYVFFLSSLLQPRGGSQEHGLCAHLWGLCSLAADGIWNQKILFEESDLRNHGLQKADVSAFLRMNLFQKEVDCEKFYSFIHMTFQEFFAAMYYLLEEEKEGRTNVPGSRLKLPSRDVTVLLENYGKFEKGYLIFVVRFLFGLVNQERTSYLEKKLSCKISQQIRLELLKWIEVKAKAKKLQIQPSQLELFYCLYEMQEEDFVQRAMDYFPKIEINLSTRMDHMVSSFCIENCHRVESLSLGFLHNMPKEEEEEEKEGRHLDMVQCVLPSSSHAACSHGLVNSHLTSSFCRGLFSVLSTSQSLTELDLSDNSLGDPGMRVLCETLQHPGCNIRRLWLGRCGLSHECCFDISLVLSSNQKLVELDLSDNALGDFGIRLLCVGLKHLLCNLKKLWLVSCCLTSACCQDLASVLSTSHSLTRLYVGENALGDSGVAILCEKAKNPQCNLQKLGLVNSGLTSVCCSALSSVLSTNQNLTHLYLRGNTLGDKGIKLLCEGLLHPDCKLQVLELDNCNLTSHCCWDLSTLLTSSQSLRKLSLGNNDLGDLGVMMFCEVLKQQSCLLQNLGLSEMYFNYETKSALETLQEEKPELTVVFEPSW

As for `Oc1cccc(C(F)(F)F)c1-c1nnc(N[C@@H]2CCC[C@H](O)C2)c2cnccc12` (racemic) [Example 50, 2-[4-[[(1R,3S)-3-hydroxycyclohexyl]amino]pyrido[3,4-d]pyridazin-1-yl]-3-(trifluoromethyl)phenol], the “Test F Solubility” value in data set [1] is more than 80.9 µg/mL.

With `Oc1cc(C(F)(F)F)ccc1-c1nnc(N[C@H]2CCC[C@H](O)C2)c2ccccc12` (single isomer, unassigned) [Example 29], the “Test F Solubility” value in data set [1] came out at 16.1 µg/mL.

On to `Oc1cc(C(F)(F)F)ccc1-c1nnc(N[C@H]2CC[C@@H](O)C2)c2ccccc12` (single isomer, unassigned) [Example 34], for which the IC50 in data set [2] (setting [5]) amounted to 0.018 µM. Besides, the solubility in data set [1] turned out to be 9.3 µg/mL (≈ 23.9 µM).

`Oc1cccc(C(F)(F)F)c1-c1nnc(N[C@@H]2CCC[C@H](O)C2)c2cnccc12` (single isomer, unassigned) [Example 49] displayed an IC50 in data set [2] (setting [5]) of 0.405 µM. The compound also displayed a solubility in data set [1] of more than 80.9 µg/mL.

As for `Oc1cccc(C(F)(F)F)c1-c1nnc(N[C@@H]2CCC[C@H](O)C2)c2cnccc12` (single isomer, unassigned) [Example 50], it took 0.047 µM to reach half-maximal inhibition in data set [2] (setting [5]) (IC50).

Regarding `OC[C@@H](O)CNc1nnc(-c2ccc(C(F)(F)F)cc2O)c2ccccc12` [Example 1, (2S)-3-[[4-[2-hydroxy-4-(trifluoromethyl)phenyl]phthalazin-1-yl]amino]propane-1,2-diol], the solubility in data set [1] was found to be 50 µg/mL (≈ 132 µM).

Consider `OC[C@@H](O)CNc1nnc(-c2ccc(Cl)c(F)c2O)c2ccccc12` [Example 2, (2S)-3-[[4-(4-chloro-3-fluoro-2-hydroxy-phenyl)phthalazin-1-yl]amino]propane-1,2-diol], for which the IC50 in data set [2] (setting [5]) was 0.165 µM. For the same compound, in data set [1], the solubility is 24.6 µg/mL (≈ 67.6 µM).

Take `OC[C@@H](O)CNc1nnc(-c2cc(F)c(F)cc2O)c2ccccc12` [Example 3, (2S)-3-[[4-(4,5-difluoro-2-hydroxy-phenyl)phthalazin-1-yl]amino]propane-1,2-diol]: half-maximal inhibition in data set [2] (setting [5]) (IC50) was put at 0.474 µM. The compound also came in with a solubility in data set [1] of 68.6 µg/mL (≈ 198 µM).

In the case of `OC[C@@H](O)CNc1nnc(-c2c(O)cccc2F)c2ccccc12` [Example 4, (2S)-3-[[4-(2-fluoro-6-hydroxy-phenyl)phthalazin-1-yl]amino]propane-1,2-diol], the IC50 in data set [2] (setting [5]) is more than 1 µM. The solubility in data set [1] stood at 23.2 µg/mL (≈ 70.4 µM).

In the case of `OC[C@@H](O)CNc1nnc(-c2c(O)cc(F)cc2F)c2ccccc12` [Example 8, (2S)-3-[[4-(2,4-difluoro-6-hydroxy-phenyl)phthalazin-1-yl]amino]propane-1,2-diol], in data set [2] (setting [5]), the IC50 is 0.159 µM. The compound also returned a solubility in data set [1] of 11.8 µg/mL (≈ 34 µM).

The compound `OC[C@@H](O)CNc1nnc(-c2c(O)cccc2Cl)c2ccccc12` [Example 10, (2S)-3-[[4-(2-chloro-6-hydroxy-phenyl)phthalazin-1-yl]amino]propane-1,2-diol] registered an IC50 in data set [2] (setting [5]) of 0.434 µM. In data set [1], the solubility was 62.9 µg/mL (≈ 182 µM).

As to `OC[C@H](O)CNc1nnc(-c2ccc(C(F)(F)F)cc2O)c2ccccc12` [Example 12, (2R)-3-[[4-[2-hydroxy-4-(trifluoromethyl)phenyl]phthalazin-1-yl]amino]propane-1,2-diol], the solubility in data set [1] is 36.4 µg/mL (≈ 96 µM).

Compound `Cc1ccc(O)c(-c2nnc(NC[C@H](O)CO)c3ccccc23)c1` [Example 13, (2S)-3-[[4-(2-hydroxy-5-methyl-phenyl)phthalazin-1-yl]amino]propane-1,2-diol] gave an IC50 in data set [2] (setting [5]) of more than 10 µM. The same compound displayed a solubility in data set [1] of more than 65.1 µg/mL.

In data set [2] (setting [5]), `CS(=O)(=O)c1ccc(-c2nnc(N[C@@H]3CC[C@@H](O)C3)c3ccccc23)c(O)c1` [Example 18, 2-[4-[[(1R,3R)-3-hydroxycyclopentyl]amino]phthalazin-1-yl]-5-methylsulfonyl-phenol] displayed an IC50 of 0.738 µM. In data set [1], the solubility was more than 79.9 µg/mL.

On to `C[C@]1(O)C[C@@H](Nc2nnc(-c3c(O)cccc3F)c3ccccc23)C1` [Example 36, 3-fluoro-2-(4-(((1s,3s)-3-hydroxy-3-methylcyclobutyl)amino)phthalazin-1-yl)phenol], for which it took 0.976 µM to reach half-maximal inhibition in data set [2] (IC50). Moreover, in data set [1], the solubility was 43 µg/mL (≈ 127 µM).

In the case of `Oc1cc(C(F)(F)F)ccc1-c1nnc(N[C@@H]2CCC[C@H](O)C2)c2ccncc12` [Example 43, 2-[1-[[(1R,3S)-3-hydroxycyclohexyl]amino]pyrido[3,4-d]pyridazin-4-yl]-5-(trifluoromethyl)phenol], the solubility in data set [1] stood at 37.3 µg/mL (≈ 92.2 µM).

On to `Oc1cccc(F)c1-c1nnc(N[C@@H]2CCC[C@H](O)C2)c2cnccc12` [Example 47, 3-fluoro-2-[4-[[(1R,3S)-3-hydroxycyclohexyl]amino]pyrido[3,4-d]pyridazin-1-yl]phenol], for which, in data set [2] (setting [5]), the IC50 came out at 0.068 µM. In data set [1], this compound returned a solubility of more than 70.9 µg/mL.

In data set [2] (setting [5]), `CCc1ccc(-c2nnc(N[C@@H]3CCC[C@H](O)C3)c3cnccc23)c(O)c1` [Example 51, 5-ethyl-2-[4-[[(1R,3S)-3-hydroxycyclohexyl]amino]pyrido[3,4-d]pyridazin-1-yl]phenol] showed a half-maximal inhibitory concentration (IC50) of 0.004 µM. The solubility in data set [1] was more than 72.9 µg/mL.

`C[C@]1(O)C[C@@H](Nc2nnc(-c3ccc(OC(F)(F)F)cc3O)c3ccncc23)C1` [Example 63, 2-(4-(((1s,3s)-3-hydroxy-3-methylcyclobutyl)amino)pyrido[3,4-d]pyridazin-1-yl)-5-(trifluoromethoxy)phenol] yielded an IC50 in data set [2] of 0.008 µM. For the same compound, the solubility in data set [1] was 0.8 µg/mL (≈ 1.97 µM).

The compound `C[C@]1(O)C[C@@H](Nc2nnc(-c3c(O)cccc3F)c3ccncc23)C1` [Example 64, 3-fluoro-2-(4-(((1s,3s)-3-hydroxy-3-methylcyclobutyl)amino)pyrido[3,4-d]pyridazin-1-yl)phenol] displayed an IC50 in data set [2] of 0.111 µM. The same compound showed a solubility in data set [1] of more than 68.1 µg/mL.

Turning to `C[C@]1(O)C[C@@H](Nc2nnc(-c3cc(F)c(F)cc3O)c3ccncc23)C1` [Example 66, 4,5-difluoro-2-(4-(((1s,3s)-3-hydroxy-3-methylcyclobutyl)amino)pyrido[3,4-d]pyridazin-1-yl)phenol], the IC50 in data set [2] is 0.57 µM. Moreover, the solubility in data set [1] is 3.6 µg/mL (≈ 10 µM).

In data set [2] (setting [5]), `CC(C)(O)CNc1nnc(-c2ccc(Cl)cc2O)c2ccncc12` [Example 71, 5-chloro-2-[4-[(2-hydroxy-2-methyl-propyl)amino]pyrido[3,4-d]pyridazin-1-yl]phenol] had an IC50 of 0.014 µM. The solubility in data set [1] stood at 21.9 µg/mL (≈ 63.5 µM).

With `CC(C)(O)CNc1nnc(-c2ccc(OC(F)(F)F)cc2O)c2ccncc12` [Example 72, 2-[4-[(2-hydroxy-2-methyl-propyl)amino]pyrido[3,4-d]pyridazin-1-yl]-5-(trifluoromethoxy)phenol], the IC50 in data set [2] (setting [5]) amounted to 0.022 µM. In data set [1], this compound registered a solubility of 5.8 µg/mL (≈ 14.7 µM).

As for `Oc1cccc(F)c1-c1nnc(N[C@@H]2CCCC[C@H]2O)c2ccncc12` [Example 77, 3-fluoro-2-(1-(((1R,2R)-2-hydroxycyclohexyl)amino)pyrido[3,4-d]pyridazin-4-yl)phenol], in data set [3], a half-maximal response (EC50) required 2.93 µM.

Compound `Oc1cc(F)ccc1-c1nnc(N[C@@H]2CCCC[C@H]2O)c2ccncc12` [Example 78, 5-fluoro-2-(1-(((1R,2R)-2-hydroxycyclohexyl)amino)pyrido[3,4-d]pyridazin-4-yl)phenol] yielded a 50% effective concentration (EC50) in data set [3] of 1.14 µM. In addition, in data set [4], the solubility was determined as 958 µM (≈ 340 µg/mL).

As to `Oc1cc(C(F)(F)F)ccc1-c1nnc(N[C@H]2CCC[C@@H](O)C2)c2cnccc12` [Example 82, 2-[4-[[(1S,3R)-3-hydroxycyclohexyl]amino]pyrido[3,4-d]pyridazin-1-yl]-5-(trifluoromethyl)phenol], the solubility in data set [1] came to 9.4 µg/mL (≈ 23.2 µM); in data set [4] it was 34 µM (≈ 13.7 µg/mL).

Turning to `Oc1cc(F)ccc1-c1nnc(N[C@@H]2CC[C@@H](O)C2)c2cnccc12` [Example 85, 5-fluoro-2-(4-(((1R,3R)-3-hydroxycyclopentyl)amino)pyrido[3,4-d]pyridazin-1-yl)phenol], the EC50 in data set [3] is 0.481 µM. For the same compound, in data set [4], the solubility was found to be 68 µM (≈ 23.1 µg/mL).

For `Oc1cccc(F)c1-c1nnc(N[C@@H]2CC[C@@H](O)C2)c2ccncc12` [Example 86, 3-fluoro-2-(1-(((1R,3R)-3-hydroxycyclopentyl)amino)pyrido[3,4-d]pyridazin-4-yl)phenol], in data set [3], the EC50 was 6.15 µM.

`Oc1cccc(F)c1-c1nnc(N[C@@H]2CC[C@H](O)C2)c2ccncc12` [Example 87, 3-fluoro-2-(1-(((1R,3S)-3-hydroxycyclopentyl)amino)pyrido[3,4-d]pyridazin-4-yl)phenol] gave an EC50 in data set [3] of 6.15 µM. The same compound had a solubility in data set [4] of 25 µM (≈ 8.51 µg/mL).

Compound `OC[C@@H](O)CNc1nnc(-c2ccc(C(F)(F)F)cc2O)c2ccncc12` [Example 88, (2S)-3-[[1-[2-hydroxy-4-(trifluoromethyl)phenyl]pyrido[3,4-d]pyridazin-4-yl]amino]propane-1,2-diol] registered a solubility in data set [1] of more than 76.1 µg/mL.

In turn, `Oc1cc(C(F)(F)F)ccc1-c1nnc(N[C@@H]2CCC[C@H](O)C2)c2ncccc12` [Example 89, 2-[8-[[(1R,3S)-3-hydroxycyclohexyl]amino]pyrido[2,3-d]pyridazin-5-yl]-5-(trifluoromethyl)phenol] displayed a solubility in data set [1] of 22.1 µg/mL (≈ 54.6 µM).

`C[C@]1(O)C[C@@H](Nc2nnc(-c3c(O)cccc3F)c3cccnc23)C1` [Example 90, 3-fluoro-2-(8-(((1s,3s)-3-hydroxy-3-methylcyclobutyl)amino)pyrido[2,3-d]pyridazin-5-yl)phenol] registered an IC50 in data set [2] of 0.551 µM. In data set [1], the solubility was more than 68.1 µg/mL.

In data set [2] (setting [5]), `Cc1ccc2c(-c3ccc(C(F)(F)F)cc3O)nnc(N[C@@H]3CCC[C@H](O)C3)c2n1` [Example 91, 2-[8-[[(1R,3S)-3-hydroxycyclohexyl]amino]-2-methyl-pyrido[2,3-d]pyridazin-5-yl]-5-(trifluoromethyl)phenol] came in with an IC50 of 0.01 µM. In data set [1], this compound showed a solubility of 0.5 µg/mL (≈ 1.19 µM).
